Test results taken from patent US20220187282A1, “CARDIOMYOCYTE PROLIFERATION” (The Council of the Queensland Institute of Medical Research, priority 2019, published 2022).
Like-named read-outs stand apart in the source and are kept apart here.

Tests used:
Assay type in all cases: biochemical
kinases [1] = target: kinases (Homo sapiens, UniProt O14920); conditions: IKBKB (IKKbeta) FRET-Z-Lyte SP; Test Conc(μM):ATP Conc(μM) 1:5
kinases [2] = target: kinases (Homo sapiens, UniProt O75460); conditions: ERN1 FRET-Lantha SP; Test Conc(μM) 1
Chain of kinases (Homo sapiens, UniProt O75460) (O75460 19-977): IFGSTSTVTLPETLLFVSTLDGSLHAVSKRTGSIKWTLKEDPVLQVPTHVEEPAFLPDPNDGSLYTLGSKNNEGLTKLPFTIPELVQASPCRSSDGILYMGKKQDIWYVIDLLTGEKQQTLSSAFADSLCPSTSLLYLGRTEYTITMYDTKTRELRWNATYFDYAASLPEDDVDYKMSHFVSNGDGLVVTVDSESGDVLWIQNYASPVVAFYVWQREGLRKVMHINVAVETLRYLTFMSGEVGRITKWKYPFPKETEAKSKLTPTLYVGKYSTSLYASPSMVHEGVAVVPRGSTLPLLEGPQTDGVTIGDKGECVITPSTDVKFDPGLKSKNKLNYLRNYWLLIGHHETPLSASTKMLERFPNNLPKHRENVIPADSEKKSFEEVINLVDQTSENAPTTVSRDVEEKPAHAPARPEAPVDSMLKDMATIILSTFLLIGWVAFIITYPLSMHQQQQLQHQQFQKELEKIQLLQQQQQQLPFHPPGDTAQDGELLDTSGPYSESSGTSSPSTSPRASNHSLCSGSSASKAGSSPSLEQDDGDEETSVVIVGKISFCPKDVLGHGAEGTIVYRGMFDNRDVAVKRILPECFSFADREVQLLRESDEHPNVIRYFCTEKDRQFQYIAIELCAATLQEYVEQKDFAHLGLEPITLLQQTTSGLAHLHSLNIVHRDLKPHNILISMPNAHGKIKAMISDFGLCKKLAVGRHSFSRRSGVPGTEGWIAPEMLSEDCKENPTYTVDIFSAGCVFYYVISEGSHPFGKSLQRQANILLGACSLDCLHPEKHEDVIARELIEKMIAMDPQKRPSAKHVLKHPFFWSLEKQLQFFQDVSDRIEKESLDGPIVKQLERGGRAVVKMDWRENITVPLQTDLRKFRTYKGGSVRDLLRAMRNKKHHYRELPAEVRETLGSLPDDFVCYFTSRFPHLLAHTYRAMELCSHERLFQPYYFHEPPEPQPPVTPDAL

kinases [3] = target: kinases (Homo sapiens, UniProt P22455); conditions: FGFR4 *Mn* FRET-Z-Lyte SP; Test Conc(μM):ATP Conc(μM) 1:150
kinases [4] = target: kinases (Homo sapiens, UniProt P23443); conditions: RPS6KB1 (p70S6K) Z-Lyte SP; Test Conc(μM):ATP Conc(μM) 1:10
kinases [5] = target: kinases (Homo sapiens, UniProt P23458); conditions: JAK1 FRET-Z-Lyte SP; Test Conc(μM):ATP Conc(μM) 1:75
kinases [6] = target: kinases (Homo sapiens, UniProt P31749); conditions: AKT1 (PKB alpha) Z-Lyte SP; Test Conc(μM):ATP Conc(μM) 1:75
kinases [7] = target: kinases (Homo sapiens, UniProt P34947); conditions: GRK5 *Mn* FRET-Z-Lyte SP; Test Conc(μM):ATP Conc(μM) 1:5
Chain of kinases (Homo sapiens, UniProt P34947) (P34947 whole entry): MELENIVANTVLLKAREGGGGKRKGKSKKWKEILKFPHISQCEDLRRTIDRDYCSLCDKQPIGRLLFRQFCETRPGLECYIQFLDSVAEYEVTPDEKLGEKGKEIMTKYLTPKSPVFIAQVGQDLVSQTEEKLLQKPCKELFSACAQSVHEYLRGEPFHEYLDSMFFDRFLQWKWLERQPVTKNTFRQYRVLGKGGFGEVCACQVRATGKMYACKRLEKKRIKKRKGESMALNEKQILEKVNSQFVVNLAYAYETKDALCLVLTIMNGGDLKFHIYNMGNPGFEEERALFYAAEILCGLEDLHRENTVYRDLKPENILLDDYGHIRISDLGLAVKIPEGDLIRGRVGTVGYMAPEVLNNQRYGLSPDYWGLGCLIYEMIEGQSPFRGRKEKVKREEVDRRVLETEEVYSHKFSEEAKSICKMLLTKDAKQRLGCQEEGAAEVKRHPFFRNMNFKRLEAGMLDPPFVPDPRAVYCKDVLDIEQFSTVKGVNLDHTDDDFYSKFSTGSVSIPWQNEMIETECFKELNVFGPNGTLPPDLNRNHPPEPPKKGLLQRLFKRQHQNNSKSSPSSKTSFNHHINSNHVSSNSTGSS

kinases [8] = target: kinases (Homo sapiens, UniProt P35626); conditions: ADRBK2 (GRK3) FRET-Z-Lyte SP; Test Conc(μM):ATP Conc(μM) 1:10
kinases [9] = target: kinases (Homo sapiens, UniProt P42356); conditions: PI4KA FRET-Adapta SP; Test Conc(μM):ATP Conc(μM) 1:10
kinases [10] = target: kinases (Homo sapiens, UniProt P51955); conditions: NEK2 FRET-Z-Lyte SP; Test Conc(μM):ATP Conc(μM) 1:150
Chain of kinases (Homo sapiens, UniProt P51955) (P51955 whole entry): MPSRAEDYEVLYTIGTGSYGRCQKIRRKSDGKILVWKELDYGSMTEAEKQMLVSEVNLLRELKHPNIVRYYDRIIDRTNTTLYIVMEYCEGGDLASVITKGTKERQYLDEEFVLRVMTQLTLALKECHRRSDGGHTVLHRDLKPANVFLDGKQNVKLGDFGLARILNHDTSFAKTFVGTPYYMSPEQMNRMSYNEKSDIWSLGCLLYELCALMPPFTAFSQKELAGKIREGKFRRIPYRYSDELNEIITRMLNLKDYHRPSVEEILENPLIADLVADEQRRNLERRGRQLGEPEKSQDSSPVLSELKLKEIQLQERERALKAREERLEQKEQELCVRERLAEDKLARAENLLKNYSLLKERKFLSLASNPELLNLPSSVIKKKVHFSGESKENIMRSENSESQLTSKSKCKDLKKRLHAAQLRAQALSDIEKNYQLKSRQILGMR

kinases [11] = target: T1, kinases (Homo sapiens, UniProt P52564)
T1 sequence (P52564 1-334): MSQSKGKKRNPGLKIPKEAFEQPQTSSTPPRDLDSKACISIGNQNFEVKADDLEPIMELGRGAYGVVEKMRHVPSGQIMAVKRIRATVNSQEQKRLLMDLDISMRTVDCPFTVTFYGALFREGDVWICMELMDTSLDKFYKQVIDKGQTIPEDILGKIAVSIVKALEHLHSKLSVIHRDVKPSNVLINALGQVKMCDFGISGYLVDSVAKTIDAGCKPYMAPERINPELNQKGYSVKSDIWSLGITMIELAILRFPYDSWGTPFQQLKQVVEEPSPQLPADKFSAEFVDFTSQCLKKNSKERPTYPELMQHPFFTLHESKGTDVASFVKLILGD

kinases [12] = target: kinases (Homo sapiens, UniProt P53671); conditions: LIMK2 FRET-Lantha SP; Test Conc(μM) 1
kinases [13] = target: kinases (Homo sapiens, UniProt P54756); conditions: EPHA5 FRET-Z-Lyte SP; Test Conc(μM):ATP Conc(μM) 1:150
kinases [14] = target: kinases (Homo sapiens, UniProt Q00535)
Chain of kinases (Homo sapiens, UniProt Q00535) (Q00535 whole entry): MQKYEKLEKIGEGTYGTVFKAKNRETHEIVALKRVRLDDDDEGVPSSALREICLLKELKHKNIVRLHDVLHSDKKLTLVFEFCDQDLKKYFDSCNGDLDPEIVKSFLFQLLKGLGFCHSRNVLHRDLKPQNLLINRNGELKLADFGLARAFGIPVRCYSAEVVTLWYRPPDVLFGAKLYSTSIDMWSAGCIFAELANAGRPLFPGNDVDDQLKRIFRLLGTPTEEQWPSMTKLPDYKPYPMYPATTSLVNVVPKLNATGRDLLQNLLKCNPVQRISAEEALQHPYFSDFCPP

kinases [15] = target: kinases (Homo sapiens, UniProt Q02156); conditions: PRKCE (PKC epsilon) Z-Lyte SP; Test Conc(μM):ATP Conc(μM) 1:25
Chain of kinases (Homo sapiens, UniProt Q02156) (Q02156 whole entry): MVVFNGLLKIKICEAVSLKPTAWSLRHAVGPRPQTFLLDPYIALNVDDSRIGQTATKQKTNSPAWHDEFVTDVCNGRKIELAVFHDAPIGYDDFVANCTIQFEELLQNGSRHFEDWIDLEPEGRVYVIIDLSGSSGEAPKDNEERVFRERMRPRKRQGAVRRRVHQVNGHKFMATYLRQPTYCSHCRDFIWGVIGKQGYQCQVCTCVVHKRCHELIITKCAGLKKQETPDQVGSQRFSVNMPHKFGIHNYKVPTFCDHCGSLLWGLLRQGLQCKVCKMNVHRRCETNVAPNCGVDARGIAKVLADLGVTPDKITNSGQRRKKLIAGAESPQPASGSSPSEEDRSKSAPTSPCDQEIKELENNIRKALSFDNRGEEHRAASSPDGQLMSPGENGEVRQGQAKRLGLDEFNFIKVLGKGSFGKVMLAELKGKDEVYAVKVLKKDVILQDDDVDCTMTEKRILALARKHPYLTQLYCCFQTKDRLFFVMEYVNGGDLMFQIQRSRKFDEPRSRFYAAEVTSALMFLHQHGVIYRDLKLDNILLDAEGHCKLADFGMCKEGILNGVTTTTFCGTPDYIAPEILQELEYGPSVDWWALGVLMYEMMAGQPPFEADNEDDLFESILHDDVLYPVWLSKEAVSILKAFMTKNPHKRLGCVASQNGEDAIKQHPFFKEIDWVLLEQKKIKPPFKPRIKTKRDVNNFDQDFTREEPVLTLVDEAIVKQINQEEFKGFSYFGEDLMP

kinases [16] = target: kinases (Homo sapiens, UniProt Q13153); conditions: PAK1 FRET-Z-Lyte SP; Test Conc(μM):ATP Conc(μM) 1:50
kinases [17] = target: kinases (Homo sapiens, UniProt Q13237); conditions: PRKG2 (PKG2) FRET-Z-Lyte SP; Test Conc(μM):ATP Conc(μM) 1:150
kinases [18] = target: kinases (Homo sapiens, UniProt Q13470); conditions: TNK1 FRET-Z-Lyte SP; Test Conc(μM):ATP Conc(μM) 1:200
kinases [19] = target: kinases (Homo sapiens, UniProt Q13557); conditions: CAMK2D FRET-Z-Lyte SP; Test Conc(μM):ATP Conc(μM) 1:5
kinases [20] = target: kinases (Homo sapiens, UniProt Q15418); conditions: RPS6KA1 (RSK1) FRET-Z-Lyte SP; Test Conc(μM):ATP Conc(μM) 1:5
kinases [21] = target: kinases (Homo sapiens, UniProt Q6VAB6); conditions: KSR2 FRET-Z-Lyte SP; Test Conc(μM):ATP Conc(μM) 1:10
kinases [22] = target: kinases (Homo sapiens, UniProt Q9H2X6); conditions: HIPK2 FRET-Z-Lyte SP; Test Conc(μM):ATP Conc(μM) 1:10
kinases [23] = target: kinases (Homo sapiens, UniProt Q9UM73); conditions: ALK FRET-Z-Lyte SP; Test Conc(μM):ATP Conc(μM) 1:25
Chain of kinases (Homo sapiens, UniProt Q9UM73) (Q9UM73 19-1620): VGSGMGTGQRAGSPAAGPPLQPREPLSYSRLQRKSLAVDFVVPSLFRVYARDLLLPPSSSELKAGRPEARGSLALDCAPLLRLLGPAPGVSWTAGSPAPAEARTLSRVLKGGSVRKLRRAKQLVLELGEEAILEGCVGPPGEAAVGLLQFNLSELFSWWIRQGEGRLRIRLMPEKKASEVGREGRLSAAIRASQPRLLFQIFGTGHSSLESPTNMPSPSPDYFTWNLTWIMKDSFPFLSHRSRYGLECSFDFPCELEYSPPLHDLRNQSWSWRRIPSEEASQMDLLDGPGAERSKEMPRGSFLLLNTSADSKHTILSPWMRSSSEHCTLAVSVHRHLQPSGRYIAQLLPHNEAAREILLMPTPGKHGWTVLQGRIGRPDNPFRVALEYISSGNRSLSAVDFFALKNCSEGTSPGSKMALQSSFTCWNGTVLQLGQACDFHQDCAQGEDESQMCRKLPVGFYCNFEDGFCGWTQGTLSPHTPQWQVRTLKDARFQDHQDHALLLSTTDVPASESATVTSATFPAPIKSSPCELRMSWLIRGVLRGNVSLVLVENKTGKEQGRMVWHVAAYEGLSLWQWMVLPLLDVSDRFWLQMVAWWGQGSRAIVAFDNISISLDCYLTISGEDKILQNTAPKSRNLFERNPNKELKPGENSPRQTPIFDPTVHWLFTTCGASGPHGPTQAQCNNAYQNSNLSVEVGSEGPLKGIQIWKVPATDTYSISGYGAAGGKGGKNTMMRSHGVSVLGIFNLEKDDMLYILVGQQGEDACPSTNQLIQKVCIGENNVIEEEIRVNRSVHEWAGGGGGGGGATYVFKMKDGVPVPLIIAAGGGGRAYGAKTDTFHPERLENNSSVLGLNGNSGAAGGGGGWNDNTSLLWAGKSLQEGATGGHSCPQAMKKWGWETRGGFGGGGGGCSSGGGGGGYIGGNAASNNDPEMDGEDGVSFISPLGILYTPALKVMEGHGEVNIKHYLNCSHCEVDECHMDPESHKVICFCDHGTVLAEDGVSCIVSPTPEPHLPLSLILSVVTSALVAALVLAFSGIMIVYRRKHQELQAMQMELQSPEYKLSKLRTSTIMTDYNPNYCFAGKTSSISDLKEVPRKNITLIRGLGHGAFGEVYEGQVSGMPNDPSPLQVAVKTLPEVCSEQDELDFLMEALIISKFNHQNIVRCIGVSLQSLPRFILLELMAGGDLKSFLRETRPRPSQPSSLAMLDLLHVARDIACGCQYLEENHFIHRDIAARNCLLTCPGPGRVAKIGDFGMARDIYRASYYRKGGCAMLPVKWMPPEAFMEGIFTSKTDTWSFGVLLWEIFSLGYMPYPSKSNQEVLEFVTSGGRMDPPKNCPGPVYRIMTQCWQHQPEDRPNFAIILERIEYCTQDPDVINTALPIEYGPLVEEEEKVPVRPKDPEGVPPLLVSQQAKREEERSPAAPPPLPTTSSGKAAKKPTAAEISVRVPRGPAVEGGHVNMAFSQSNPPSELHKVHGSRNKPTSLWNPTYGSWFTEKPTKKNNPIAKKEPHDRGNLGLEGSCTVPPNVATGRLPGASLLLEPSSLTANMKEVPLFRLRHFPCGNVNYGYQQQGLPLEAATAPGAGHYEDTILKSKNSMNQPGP

kinases [24] = target: kinases (Homo sapiens, UniProt Q9Y4K4); conditions: MAP4K5 (KHS1) FRET-Z-Lyte SP; Test Conc(μM):ATP Conc(μM) 1:50
kinases [25] = target: kinases (Homo sapiens, UniProt Q9Y6E0); conditions: STK24 (MST3) FRET-Z-Lyte SP; ATP Conc(μM):Test Conc(μM) 1:50
Chain of kinases (Homo sapiens, UniProt Q9Y6E0) (Q9Y6E0 whole entry): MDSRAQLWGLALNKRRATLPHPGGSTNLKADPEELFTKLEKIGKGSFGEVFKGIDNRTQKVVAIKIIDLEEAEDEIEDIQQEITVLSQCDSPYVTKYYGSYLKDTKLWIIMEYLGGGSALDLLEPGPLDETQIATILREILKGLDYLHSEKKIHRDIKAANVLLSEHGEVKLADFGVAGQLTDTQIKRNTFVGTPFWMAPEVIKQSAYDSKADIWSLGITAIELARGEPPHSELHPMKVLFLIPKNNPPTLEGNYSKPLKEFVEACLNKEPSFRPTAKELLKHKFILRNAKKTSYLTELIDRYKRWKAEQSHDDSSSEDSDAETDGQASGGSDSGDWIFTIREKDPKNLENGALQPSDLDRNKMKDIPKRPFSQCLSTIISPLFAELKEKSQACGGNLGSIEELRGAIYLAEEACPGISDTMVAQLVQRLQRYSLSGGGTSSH

[26] = MAP2K6 (MKK6) FRET-Lantha SP, Test Conc(μM) 1
[27] = MAP2K6 (MKK6)Cascade Z-Lyte SP, Test Conc(μM):ATP Conc(μM) 1:100
[28] = CDK5 (Inactive) FRET-Lantha SP, Test Conc(μM) 1
[29] = CDK5/p25 FRET-Z-Lyte SP, Test Conc(μM):ATP Conc(μM) 1:10
[30] = CDK5/p35 FRET-Z-Lyte SP, Test Conc(μM):ATP Conc(μM) 1:10

| Compound | Mean Inhib (%) (kinases [1]) | Mean Inhib (%) (kinases [2]) | Mean Inhib (%) (kinases [3]) | Mean Inhib (%) (kinases [4]) | Mean Inhib (%) (kinases [5]) | Mean Inhib (%) (kinases [6]) | Mean Inhib (%) (kinases [7]) | Mean Inhib (%) (kinases [8]) | Mean Inhib (%) (kinases [9]) | Mean Inhib (%) (kinases [10]) | Mean Inhib (%) (kinases [11]; [26]) | Mean Inhib (%) (kinases [11]; [27]) | Mean Inhib (%) (kinases [12]) | Mean Inhib (%) (kinases [13]) | Mean Inhib (%) (kinases [14]; [28]) | Mean Inhib (%) (kinases [14]; [29]) | Mean Inhib (%) (kinases [14]; [30]) | Mean Inhib (%) (kinases [15]) | Mean Inhib (%) (kinases [16]) | Mean Inhib (%) (kinases [17]) | further results |
| --- | --- | --- | --- | --- | --- | --- | --- | --- | --- | --- | --- | --- | --- | --- | --- | --- | --- | --- | --- | --- | --- |
| Cc1ccc(NC(=O)c2ccnc(N3CCOCC3)c2)cc1Nc1ccnc(N2CC(C)OC(C)C2)n1 (centres unmarked) [compound 3] | 0.6% | −3.4% | 14.8% | 4.7% | −1.9% | 5.2% | 4.7% | 0.7% | 4.3% | −0.8% | −4.9% | 21.3% | 0.5% | 6.7% | 5.2% | 2.0% | 0.9% | 12.2% | −1.9% | 2.4% | Mean Inhib (%) (kinases [18]): −8.8%; Mean Inhib (%) (kinases [19]): 8.1%; Mean Inhib (%) (kinases [20]): 14.8%; Mean Inhib (%) (kinases [21]): 3.9%; Mean Inhib (%) (kinases [22]): −3.2%; Mean Inhib (%) (kinases [23]): 11.9%; Mean Inhib (%) (kinases [24]): −7.8%; Mean Inhib (%) (kinases [25]): −7.6% |
| Cc1cc(Oc2ccnc(Nc3ccc(S(N)(=O)=O)cc3)c2)c(-c2ccccn2)nc1C [compound 65] | −2.5% | 1.0% | −0.9% | 1.0% | 4.3% | −1.3% | 4.6% | −2.5% | −6.0% | 12.8% | 2.3% | −5.7% | 22.2% | 65.2% | 17.2% | 8.0% | 2.5% | 10.0% | 14.1% | 0.2% | Mean Inhib (%) (kinases [18]): −4.5%; Mean Inhib (%) (kinases [19]): 0.3%; Mean Inhib (%) (kinases [20]): 5.3%; Mean Inhib (%) (kinases [21]): 1.6%; Mean Inhib (%) (kinases [22]): −0.8%; Mean Inhib (%) (kinases [23]): 4.2%; Mean Inhib (%) (kinases [24]): 38.0%; Mean Inhib (%) (kinases [25]): 4.9% |
